“And” between values parts separate entries of the source, which are not always exact repeats. Equal values may be shown once. Read-outs that look alike come from different tables or passages of the source. Each block holds one compound with its values, some of them ahead of it. Non-standard residues stand in square brackets, D forms with d. Residues, ends and D or L forms follow the SMILES beside them. Tyr(3-I) = N[C@@H](Cc1ccc(O)c(I)c1)C(=O)O; pGlu = O=C1CC[C@@H](C(=O)O)N1; Nle = CCCC[C@H](N)C(=O)O
How the values were obtained:
NTR1 [1] = target: T1, NTR1 (Homo sapiens, UniProt P30989); experiment: ^125I-NT binding to PC3 cells; details: for maximal increase in NT binding to PC3 cells: as much as / up to, dose-response
T1 sequence (P30989 whole entry): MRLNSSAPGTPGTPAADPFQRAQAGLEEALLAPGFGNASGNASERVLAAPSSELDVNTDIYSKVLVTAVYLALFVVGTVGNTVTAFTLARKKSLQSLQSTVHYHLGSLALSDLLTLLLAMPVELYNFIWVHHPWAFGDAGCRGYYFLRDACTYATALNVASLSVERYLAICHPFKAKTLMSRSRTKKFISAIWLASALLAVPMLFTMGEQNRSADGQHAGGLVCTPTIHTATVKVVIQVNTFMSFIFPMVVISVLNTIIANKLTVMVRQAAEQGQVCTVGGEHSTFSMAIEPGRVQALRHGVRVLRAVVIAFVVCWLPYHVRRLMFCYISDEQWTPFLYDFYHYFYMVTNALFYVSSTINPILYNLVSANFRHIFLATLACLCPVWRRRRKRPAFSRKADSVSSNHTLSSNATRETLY

NTR1 [2] = target: T1, NTR1; experiment: NT-induced IP formation in PC3 cells; format: cell-based; set-up: Ab-NTR1 detected two major bands in extracts of PC3 cells, the parent protein of 50 kDa; endogenous in cells; host or cells: PC3 cells (ATCC)
bombesin receptor = target: T2, bombesin receptor (Homo sapiens, UniProt P30550); experiment: ^125I-[Nle^14]-bombesin binding to PC3 cells; details: for Specific Binding (% control) of ^125I-[Nle14]-bombesin: 37° C.
T2 construct: endogenous in cells; host or cells: PC3 cells (ATCC)
T2 sequence (P30550 whole entry): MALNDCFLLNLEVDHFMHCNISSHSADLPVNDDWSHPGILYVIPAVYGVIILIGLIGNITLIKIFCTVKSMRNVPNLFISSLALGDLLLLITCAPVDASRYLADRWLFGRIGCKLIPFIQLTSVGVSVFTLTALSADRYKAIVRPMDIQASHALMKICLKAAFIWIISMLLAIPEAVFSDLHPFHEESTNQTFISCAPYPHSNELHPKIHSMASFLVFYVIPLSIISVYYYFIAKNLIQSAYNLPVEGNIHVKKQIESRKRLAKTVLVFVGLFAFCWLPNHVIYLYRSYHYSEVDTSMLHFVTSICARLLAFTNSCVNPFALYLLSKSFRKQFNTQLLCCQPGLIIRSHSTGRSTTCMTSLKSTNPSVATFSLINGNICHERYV

NTR1 [3] = target: T1, NTR1; experiment: ^125I-NT binding to isolated PC3 cell membranes; set-up: Ab-NTR1 detected two major bands in extracts of PC3 cells, the parent protein of 50 kDa; endogenous in cells; host or cells: PC3 cells (ATCC)
PC3 cells = experiment: Ionomycin-stimulated IP formation in PC3 cells; format: cell-based
[4] = vitamin-like antioxidants at 20-180 μM, n=3
[5] = general reducing agents and antioxidants
[6] = read-out: NT Binding EC50, [agent] giving 75% increase in NT binding
[7] = 6 μM enzyme inhibitor, PC3 cells
[8] = 20 μM enzyme inhibitor, PC3 cells
[9] = 60 μM enzyme inhibitor, PC3 cells

effect on NT binding (NTR1 [1]; used at 1-3 mM, n=3): without effect
Compound: CC(=O)N[C@@H](CS)C(=O)O [N-acetyl cysteine]

effect on NT binding (NTR1 [1]; [4]): ineffective
Compound: CC1=C(/C=C/C(C)=C/C=C/C(C)=C/C=C/C=C(C)/C=C/C=C(C)/C=C/C2=C(C)CCCC2(C)C)C(C)(C)CCC1 [β-carotene]

Compound: Cc1c(C)c2c(c(C)c1O)CC[C@@](C)(CCC[C@H](C)CCC[C@H](C)CCCC(C)C)O2 [α-tocoferol]
effect on NT binding (NTR1 [1]; [4]): ineffective

effect on NT binding (NTR1 [1]; [5]): not much affected
effect on NT binding (NTR1 [1]; [4]): ineffective
Compound: O=C1O[C@H]([C@@H](O)CO)C(O)=C1O [ascorbic acid]

Compound: N#CC(=C(/N)Sc1ccccc1N)/C(C#N)=C(\N)Sc1ccccc1N [U0126]
Specific NT-Binding (% control) (NTR1 [1]): 118 ± 6 % control and 108 ± 6 % control and 120 ± 9 % control

Compound: c1ccc2c(c1)[I+]c1ccccc1-2 [Diphenylene iodonium]
EC50 (NTR1 [1]): 61 µM
IC50 (NTR1 [2]; [agent] giving 50% decrease in IP formation, read-out: IP Formation IC50): 35 µM

Compound: Clc1ccc(COC(Cn2ccnc2)c2ccc(Cl)cc2Cl)c(Cl)c1 (stereo not drawn) [miconazole]
NT Binding Efficacy % increase (NTR1 [1]; maximal % increase in NT binding observed for each agent): 75 % increase
IP Formation Efficacy (% decrease) (NTR1 [2]; maximal % decrease in NT-induced IP formation): 54 % decrease

effect on NT binding (figure legend) (NTR1 [1]; FIG. 21A): enhanced NT-binding to NTR
effect on NT-induced IP formation (figure legend) (NTR1 [2]; FIG. 21B): inhibited NT-induced IP formation
Compound: O=c1c(O)c(-c2ccc(O)c(O)c2)oc2cc(O)cc(O)c12 [quercetin]

Compound: Cc1cc2c(C(C)C)c(O)c(O)c(C=O)c2c(O)c1-c1c(C)cc2c(C(C)C)c(O)c(O)c(C=O)c2c1O [Gossypol, gossypol]
NT Binding Efficacy % increase (NTR1 [1]; LOX blockers): 170 % increase
IC50 (NTR1 [2]; [agent] that decreased IP formation by 40%, read-out: IP Formation IC50): 20 µM

Compound: O=C(/C=C/c1ccc(O)c(O)c1)OCCc1ccccc1 [CAPE, caffeic acid phenethyl ester]
EC50 (NTR1 [1]): 34 µM
maximal increase in NT binding to PC3 cells (NTR1 [1]): ≤ 2.8 fold
IC50 (NTR1 [2]): 18 µM

Compound: [BH4-].[Na+] [sodium borohydride]
effect on NT binding (NTR1 [1]; [5]): not much affected
effect on NT binding (NTR1 [1]; used at 1-3 mM, n=3): without effect

Compound: Oc1cc(O)c2c(c1)O[C@H](c1ccc(O)c(O)c1)[C@@H](O)C2 [(+)-catechin]
effect on NT binding (NTR1 [1]; used at 10-100 μM, n=3): without effect

effect on NT binding (NTR1 [1]; [5]): not much affected
effect on NT binding (NTR1 [1]; [4]): ineffective
Compound: Cc1cc2nc3c(=O)[nH]c(=O)nc-3n(C[C@H](O)[C@H](O)[C@H](O)CO)c2cc1C [riboflavin]

effect on NT binding (NTR1 [1]; used at 1-3 mM, n=3): without effect
Compound: N[C@@H](CCC(=O)N[C@@H](CS)C(=O)NCC(=O)O)C(=O)O [glutathione]

Specific Binding (% control) of ^125I-[Nle^14]-bombesin (bombesin receptor; 12 μM agent): 99 ± 2 % control
Specific Binding (% control) of ^125I-[Nle^14]-bombesin (bombesin receptor; 60 μM agent): 106 ± 4 % control
Compound: COc1ccc(CCCOC(Cn2ccnc2)c2ccc(OC)cc2)cc1 (stereo not drawn) [SKF-96365]

effect on NT binding (NTR1 [1]; less specific CCBs): only modest effects
Compound: CN1CCN(CCCN2c3ccccc3Sc3ccc(C(F)(F)F)cc32)CC1 [trifluoperazine]

Compound: C=C(C)[C@H]1Cc2c(ccc3c2O[C@@H]2COc4cc(OC)c(OC)cc4[C@@H]2C3=O)O1 [rotenone]
EC50 (NTR1 [1]): 38 µM

effect on NT binding (NTR1 [1]; [5]): not much affected
effect on NT binding (NTR1 [1]; [4]): ineffective
Compound: Cc1ncc(CO)c(CO)c1O [pyridoxine]

effect on NT binding (NTR1 [1]; less specific CCBs): only modest effects
Compound: Fc1ccc(C(c2ccc(F)cc2)N2CCN(C/C=C/c3ccccc3)CC2)cc1 [flunarizine]

effect on NT binding (NTR1 [1]; [5]): not much affected
Compound: O[C@H](CS)[C@H](O)CS (racemic) [DTT, dithiothreitol]

Compound: CCCCCC(O)c1cccc(OCc2ccc3ccccc3n2)c1 (stereo not drawn) [Rev5901]
Specific Binding (% control) of ^125I-[Nle14]-bombesin (bombesin receptor; 12 μM LOX blocker): 107 ± 3 % control
Specific Binding (% control) of ^125I-[Nle14]-bombesin (bombesin receptor; 60 μM LOX blocker): 119 ± 3 % control
NT Binding Efficacy % increase (NTR1 [1]; LOX blockers): 160 % increase
maximal increase in NT binding to PC3 cells (NTR1 [1]): ≤ 2.4 fold
Specific NT-Binding (% control) (NTR1 [3]; 10 μM LOX pathway blocker): 101 ± 4 % control
Specific NT-Binding (% control) (NTR1 [3]; 25 μM LOX pathway blocker): 113 ± 5 % control
Specific NT-Binding (% control) (NTR1 [3]; 75 μM LOX pathway blocker): 110 ± 5 % control

effect on NT binding (NTR1 [1]; [5]): not much affected
effect on NT binding (NTR1 [1]; used at 10-100 μM, n=3): without effect
Compound: Cc1c(C)c2c(c(C)c1O)CCC(C)(C(=O)O)O2 (stereo not drawn) [trolox]

EC50 (NTR1 [1]; [6]): 16 µM
Compound: COC(=O)C1=C(C)NC(C)=C([N+](=O)[O-])C1c1ccccc1C(F)(F)F (stereo not drawn) [BayK-8644]

Specific Binding (% control) of ^125I-[Nle14]-bombesin (bombesin receptor; 12 μM LOX blocker): 110 ± 3 % control
Specific Binding (% control) of ^125I-[Nle14]-bombesin (bombesin receptor; 60 μM LOX blocker): 127 ± 4 % control
Specific NT-Binding (% control) (NTR1 [3]; 10 μM LOX pathway blocker): 110 ± 5 % control
Specific NT-Binding (% control) (NTR1 [3]; 25 μM LOX pathway blocker): 121 ± 8 % control
Specific NT-Binding (% control) (NTR1 [3]; 75 μM LOX pathway blocker): 132 ± 10 % control
Compound: CC(Cc1ccc(O)c(O)c1)C(C)Cc1ccc(O)c(O)c1 (stereo not drawn) [NDGA, Nordihydroguaiaretic acid]

Compound: CC(=O)OCOC(=O)CN(CC(=O)OCOC(C)=O)c1ccccc1OCCOc1ccccc1N(CC(=O)OCOC(C)=O)CC(=O)OCOC(C)=O [BAPTA-AM, 1,2-bis(o-aminophenoxy)ethane-N,N,N′,N′-tetraacetic acid tetra(acetoxymethyl) ester]
effect on NT binding (NTR1 [1]; chelation of intracellular Ca^2+, 50 μM BAPTA-AM): nor was NT binding altered

Compound: CCCC[C@H](NC(=O)[C@H](CC(C)C)NC(=O)[C@H](Cc1c[nH]cn1)NC(=O)CNC(=O)[C@@H](NC(=O)[C@H](C)NC(=O)[C@H](Cc1c[nH]c2ccccc12)NC(=O)[C@H](CCC(N)=O)NC(=O)[C@H](CC(N)=O)NC(=O)CNC(=O)[C@H](Cc1ccc(O)c(I)c1)NC(=O)[C@H](CCCNC(=N)N)NC(=O)[C@H](CCC(N)=O)NC(=O)[C@@H]1CCC(=O)N1)C(C)C)C(N)=O [^125I-[Nle^14]-bombesin] ([pGlu]QR[Tyr(3-I)]GNQWAVGHL[Nle]-NH2; C-terminus assumed)
Specific Binding (% of total) (bombesin receptor; 10^5 cpm ^125I-ligand): 95 % of total
Bmax (bombesin receptor; Scatchard analysis): 1016 ± 64 fmol/mg

Compound: O=C(O)CN(CCOCCOCCN(CC(=O)O)CC(=O)O)CC(=O)O [EGTA, ethylene glycol tetra-acetic acid]
increase in NT binding (NTR1 [1]): 38±6 % increase
effect on NT-induced IP formation (NTR1 [2]; Ca^2+-chelator added): inhibited

effect on NT binding (NTR1 [1]; [5]): not much affected
effect on NT binding (NTR1 [1]; [4]): ineffective
Compound: Cc1ncc(C[n+]2csc(CCO)c2C)c(N)n1 [thiamine]

Compound: C[S+]([O-])c1ccc(-c2nc(-c3ccncc3)c(-c3ccc(F)cc3)[nH]2)cc1 (stereo not drawn) [SB203580]
Specific NT-Binding (% control) (NTR1 [1]; [7]): 108 ± 8 % control
Specific NT-Binding (% control) (NTR1 [1]; [8]): 116 ± 7 % control
Specific NT-Binding (% control) (NTR1 [1]; [9]): 125 ± 9 % control

Specific NT-Binding (% control) (NTR1 [1]; [7]): 109 ± 4 % control
Specific NT-Binding (% control) (NTR1 [1]; [8]): 95 ± 6 % control
Specific NT-Binding (% control) (NTR1 [1]; [9]): 113 ± 7 % control
Compound: COc1ccc2c(c1)c(CC(=O)O)c(C)n2C(=O)c1ccc(Cl)cc1 [indomethacin]

Compound: C[C@H](CCC(=O)O)C[C@H](C)C[C@H](C)C(=O)/C=C(\O)[C@H](C)C[C@H](C)C/C=C/[C@@H](C)[C@@H](O)[C@@H](C)[C@@H](O)C[C@@H]1CC[C@@](C)([C@H]2CC[C@@](C)([C@@H](C)O)O2)O1 [ionomycin]
IP formation (% control) (PC3 cells; 2 μM ionomycin): 139±6%
IP formation (% control) (PC3 cells; 10 μM ionomycin): 157±5 % control
IP formation (% control) (PC3 cells; 20 μM ionomycin): 324±14%
IP formation (% control) (PC3 cells; 25 μM ionomycin): 322±11 % control
share of the NT response reproduced (PC3 cells; IP formation): ~63%
reversal of NIF enhancement of NT binding (NTR1 [1]; 20 μM ionomycin): not reversed

EC50 (NTR1 [1]; [6]): 29 µM
Compound: COC(=O)c1c(C)[nH]c(C)c1C(=O)c1ccccc1Cc1ccccc1 [FPL-64176]

Compound: COc1ccc(O)c(C(C)(C)C)c1 [BHA, butylated hydroxy anisole]
EC50 (NTR1 [1]; [6]): 110 µM

NT Binding Efficacy % increase (NTR1 [1]; LOX blockers): 157 % increase
EC50 (NTR1 [1]; read-out: NT Binding EC50, [agent] giving 100% increase in NT binding): 34 µM
Compound: CCCc1c(OCCCCc2nnn[nH]2)ccc(C(C)=O)c1O [LY171883]

Compound: COc1ccc(CCN(C)CCCC(C#N)(c2ccc(OC)c(OC)c2)C(C)C)cc1OC (stereo not drawn) [Verapamil, verapamil]
Specific Binding (% control) of ^125I-[Nle^14]-bombesin (bombesin receptor; 12 μM agent): 104 ± 4 % control
Specific Binding (% control) of ^125I-[Nle^14]-bombesin (bombesin receptor; 60 μM agent): 104 ± 4 % control

effect on NT binding (NTR1 [1]; used at 10-100 μM, n=3): without effect
Compound: O=c1oc2c(O)c(O)cc3c(=O)oc4c(O)c(O)cc1c4c23 [ellagic acid]

maximal increase in NT binding to PC3 cells (NTR1 [1]): ≤ 1.4 fold
Compound: COc1ccc([C@@H]2Sc3ccccc3N(CCN(C)C)C(=O)[C@@H]2OC(C)=O)cc1 [Diltiazem, diltiazem]

Compound: N#CC(C#N)=NNc1cccc(Cl)c1 [CCCP, Carbonyl cyanide 3-chlorophenylhydrozone]
EC50 (NTR1 [1]): 23 µM

Specific NT-Binding (% control) (NTR1 [3]; 10 μM LOX pathway blocker): 102 ± 3 % control
Specific NT-Binding (% control) (NTR1 [3]; 25 μM LOX pathway blocker): 115 ± 4 % control
Specific NT-Binding (% control) (NTR1 [3]; 75 μM LOX pathway blocker): 142 ± 8 % control
Compound: CC1=C(/C=C/C(C)=C/C=C/C(C)=C/C(=O)O)C(C)(C)CCC1 [Retinoic Acid, retinoic acid]

Compound: (−)-epigallocatechin gallate
effect on NT binding (NTR1 [1]; used at 10-100 μM, n=3): without effect

Reference: patent publication US20060062729A1, “Enhanced ligand binding to neurotensin receptors” (priority 2004, published 2006)
